Results published in the supplement of paper PMC10307832.

What was measured:
Assay in all cases: relative viability (nuclei count vs DMSO), 5 days (fraction); higher = more cells survive
[1] = compound: COC1=CC=C(C=C1)CN2C=CC3=C2C=C(C=C3)C(=O)NO + O=C(c1cc(Cc2n[nH]c(=O)c3ccccc23)ccc1F)N1CCN(C(=O)C2CC2)CC1 [Olaparib] (partner 8 µM)
Summary of the method: (§1)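 Relative viability is defined as nuclei in treated wells over nuclei in vehicle wells. Duplicate plates were run and medians reported. Lung cancer cell lines in 1536-well plates were dosed by pin tool one day after seeding, with one drug or with a fixed anchor-drug dose plus five library-drug doses (not always all listed) in √10 steps, and nuclei were counted after 5 days.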

[2] = compound: COC1=CC=C(C=C1)CN2C=CC3=C2C=C(C=C3)C(=O)NO + CS(=O)(=O)CCNCc1ccc(-c2ccc3ncnc(Nc4ccc(OCc5cccc(F)c5)c(Cl)c4)c3c2)o1 [Lapatinib] (partner 2 µM)
Summary of the method: as §1

[3] = compound: COC1=CC=C(C=C1)CN2C=CC3=C2C=C(C=C3)C(=O)NO + Cc1cc(Nc2cc(N3CCN(C)CC3)nc(Sc3ccc(NC(=O)C4CC4)cc3)n2)n[nH]1 [Tozasertib] (partner 0.1 µM)
Summary of the method: as §1

[4] = compound: COC1=CC=C(C=C1)CN2C=CC3=C2C=C(C=C3)C(=O)NO + CC(C)C[C@H](NC(=O)[C@H](Cc1ccccc1)NC(=O)c1cnccn1)B(O)O [Bortezomib] (partner 0.002 µM)
Summary of the method: as §1

Cell Line	relative viability ([1]; first compound 0.08 µM)	relative viability ([1]; first compound 0.253 µM)	relative viability ([1]; first compound 0.8 µM)	relative viability ([1]; first compound 2.53 µM)	relative viability ([1]; first compound 8 µM)	relative viability ([2]; first compound 0.08 µM)	relative viability ([2]; first compound 0.253 µM)	relative viability ([2]; first compound 0.8 µM)	relative viability ([2]; first compound 2.53 µM)	relative viability ([2]; first compound 8 µM)	relative viability ([3]; first compound 0.08 µM)	relative viability ([3]; first compound 0.253 µM)	relative viability ([3]; first compound 0.8 µM)	relative viability ([3]; first compound 2.53 µM)	relative viability ([3]; first compound 8 µM)	relative viability ([4]; first compound 0.08 µM)	relative viability ([4]; first compound 0.253 µM)	relative viability ([4]; first compound 0.8 µM)	relative viability ([4]; first compound 2.53 µM)	relative viability ([4]; first compound 8 µM)
NCI-H727	0.68	0.709	0.755	0.649	0.622	0.775	0.927	0.868	0.942	0.915	0.592	0.529	0.772	0.602	0.625	0.834	0.98	1.09	0.908	0.755
NCI-H2405	0.649		0.85	0.887	0.799	0.523	1.03	1.11	1.17	0.871	0.523	0.807	0.716	0.689	0.656	0.546	0.924	1.02	1.01	0.961
RERF-LC-KJ	0.829	0.825	0.986	0.816	0.806	0.428	0.881	0.924	0.95	0.869	0.427	0.494	0.499	0.49	0.388	1.08	1.13	1.11	1.13	1.06
NCI-H1734		0.325	0.63	0.55	0.676		1.14	1.07	1.04	0.916		0.236	0.242	0.251	0.23		1.03	0.91	0.898	0.725
HCC-827	0.573	0.697	0.655	0.68	0.531	0.189	0.212	0.168	0.181	0.178	0.405	0.427	0.442	0.416	0.415	1.01	0.929	1.05	0.896	1.04
NCI-H520	0.342	0.362	0.327	0.339	0.286	0.425	0.891	0.943	0.886	0.803		0.453	0.428	0.449	0.375	0.218	0.722	0.64	0.751	0.525
NCI-H2126	0.869	0.945	0.961	0.956	0.874	0.459	0.746	0.747	0.79	0.71	0.736	0.801	0.856	0.856	0.754	1.06	1.09	1.15	1.12	1.05
EPLC-272H		0.716	0.981	0.916	0.686	0.199	0.974	1.04	0.974	0.728	0.135		0.346	0.235	0.272	0.925	0.953	1.16	0.861	0.855
HCC-366	0.237	0.338	0.371	0.375	0.292		0.992	1.06	1.04	1.07	0.0975	0.116	0.124	0.354	0.0739		1.12	1.03	1.02	0.934
EKVX		0.802	0.739	0.868	0.758	0.166	0.18	0.185	0.203	0.225	0.374	0.369	0.409	0.372	0.36	1.03	0.762	1.16	1.08	1.21
201T	0.846	0.833	0.881	0.844	0.832	1	1.03	1.06	1.05	0.969	0.677	0.976	0.998	0.877	0.943	1.09	1.1	1.1	1.14	1.06
LC-2-ad	0.696	0.343	0.681	0.688	0.709	0.259	0.948	0.972	0.931	0.92	0.384	0.46	0.485	0.411	0.382	0.964	0.989	1	0.959	0.769
COR-L 105	0.558	0.743	0.808	0.715	0.706		0.367	0.37	0.341	0.296	0.351	0.355	0.328	0.416	0.319		0.741	0.654	0.625	0.277
HCC-78	0.748	0.776	0.815	0.968	0.535		0.706	0.731	0.715	0.733	0.34	0.329	0.397	0.395	0.38	0.474	0.49	0.437	0.543	0.51
NCI-H650	0.351	0.417	0.452	0.353	0.418	0.601	0.837	0.927	0.732	0.759	0.595	0.69	0.786	0.673	0.672	0.832	0.732	0.881	0.928	0.64
ABC-1		0.745	0.73	0.734	0.87	0.618	1.13	1.21	1.3	1.13		0.221	0.183	0.162	0.209		0.274	0.296	0.325	0.318
A-427	0.251		0.71	0.711	0.724		1.07	1.1	0.995	0.909		0.234	0.212	0.202	0.185		1.01	1.04	0.994	0.931
